Starred links: 1 amine or outer side, 2 acyl side, 3 side chain; linkers in the order of their positions; H or OH if unused. Non-standard residues stand in square brackets, D forms with d. Residues, ends and D or L forms follow the SMILES beside them. *: point of attachment. X1 = O=C1c2ccccc2[C@@](O)(CN(Cc2ccccc2)[*:1])N1CC(=O)[*:2]; X2 = O=C1c2ccccc2[C@](O)(CN(Cc2ccccc2)[*:1])N1CC(=O)[*:2]; Bn = c1ccc(C*)cc1
Legend:
[1] = tested on: HepG2; experiment: Antiproliferative activity against human HepG2 cells incubated for 48 hrs by MTT assay; assay type: functional, cell-based; details: HepG2, 48 h
[2] = tested on: HeLa; experiment: Antiproliferative activity against human HeLa cells incubated for 48 hrs by MTT assay; assay type: functional, cell-based
[3] = tested on: MDA-MB-231; experiment: Antiproliferative activity against human MDA-MB-231 cells incubated for 48 hrs by MTT assay; assay type: functional, cell-based; details: MDA-MB-231, 48 h
[4] = tested on: BEL-7404 tumor cell line; experiment: Antiproliferative activity against human BEL-7404 tumor cell line incubated for 48 hrs by MTT assay; assay type: functional, cell-based; details: BEL-7404, 48 h
[5] = tested on: 4T1; experiment: Antiproliferative activity against mouse 4T1 cells incubated for 48 hrs by MTT assay; assay type: functional, cell-based; details: 4T1, 48 h
[6] = Antiproliferative activity against mouse L929 cells incubated for 48 hrs by MTT assay; assay type: toxicity, cell-based

Structure (SMILES)	IC50 [1] [µM]	IC50 [2] [µM]	IC50 [3] [µM]	IC50 [4] [µM]	IC50 [5] [µM]	IC50 at 48 h [6] [µM]
CC(C)C[C@@H]1NC(=O)[C@H]([C@@H](C)O)NC(=O)[C@@H]2CCCN2C(=O)CNC(=O)[C@H](Cc2ccccc2)NC(=O)[C@@H]2CCCN2C(=O)[C@H](Cc2c[nH]c3ccccc23)NC1=O [PHAKELLISTATIN 13] (cyclo(FGPTLWP))	13.1	28.1	20.5	49.9	26.8	> 100
CC(C)C[C@H]1NC(=O)[C@@H]([C@H](C)OCc2ccccc2)NC(=O)[C@H]2CCCN2C(=O)CN2C(=O)c3ccccc3[C@@]2(O)CN(Cc2ccccc2)C(=O)[C@@H](Cc2ccccc2)NC(=O)[C@H]2CCCN2C(=O)[C@@H](Cc2c[nH]c3ccccc23)NC1=O	29	31	17.8	25.7	42.4	> 100
CC(C)C[C@@H]1NC(=O)CN2C(=O)c3ccccc3[C@]2(O)CN(Cc2ccccc2)C(=O)[C@H]([C@@H](C)OCc2ccccc2)NC(=O)[C@@H]2CCCN2C(=O)[C@H](Cc2ccccc2)NC(=O)[C@@H]2CCCN2C(=O)[C@H](Cc2c[nH]c3ccccc23)NC1=O (cyclo(FPT(Bn)[X2]LWP))	35.5	55.6	32.6	41.7	58.9	> 100
CC(C)C[C@@H]1NC(=O)[C@H]([C@@H](C)OCc2ccccc2)NC(=O)[C@@H]2CCCN2C(=O)[C@H](Cc2ccccc2)NC(=O)[C@@H]2CCCN2C(=O)[C@H](Cc2c[nH]c3ccccc23)NC(=O)CN2C(=O)c3ccccc3[C@@]2(O)CN(Cc2ccccc2)C1=O (cyclo(FPT(Bn)L[X1]WP))	31.1	35.9	14.4	28.7	67.5	> 100
CC(C)C[C@@H]1NC(=O)[C@H]([C@@H](C)OCc2ccccc2)NC(=O)[C@@H]2CCCN2C(=O)[C@H](Cc2ccccc2)NC(=O)[C@@H]2CCCN2C(=O)CN2C(=O)c3ccccc3[C@]2(O)CN(Cc2ccccc2)C(=O)[C@H](Cc2c[nH]c3ccccc23)NC1=O (cyclo(FPT(Bn)LW[X2]P))	44.3	52.8	14	36.1	65.2	> 100
CC(C)C[C@@H]1NC(=O)[C@H]([C@@H](C)OCc2ccccc2)NC(=O)CN2C(=O)c3ccccc3[C@]2(O)CN(Cc2ccccc2)C(=O)[C@@H]2CCCN2C(=O)[C@H](Cc2ccccc2)NC(=O)[C@@H]2CCCN2C(=O)[C@H](Cc2c[nH]c3ccccc23)NC1=O (cyclo(FP[X2]T(Bn)LWP))	32.6	50.8	26.1	38.9	65.9	> 100
CC(C)C[C@@H]1NC(=O)[C@H]([C@@H](C)OCc2ccccc2)NC(=O)[C@@H]2CCCN2C(=O)CN2C(=O)c3ccccc3[C@@]2(O)CN(Cc2ccccc2)C(=O)[C@H](Cc2ccccc2)NC(=O)[C@@H]2CCCN2C(=O)[C@H](Cc2c[nH]c3ccccc23)NC1=O	24.1	28.6	15.4	30	54.7	> 100
CC(C)C[C@@H]1NC(=O)[C@H]([C@@H](C)OCc2ccccc2)NC(=O)[C@@H]2CCCN2C(=O)[C@H](Cc2ccccc2)NC(=O)CN2C(=O)c3ccccc3[C@@]2(O)CN(Cc2ccccc2)C(=O)[C@@H]2CCCN2C(=O)[C@H](Cc2c[nH]c3ccccc23)NC1=O (cyclo(FPT(Bn)LWP[X1]))	28.9	33.9	29.3	30.2	42.6	> 100
COc1cccc2c1C(=O)c1c(O)c3c(c(O)c1C2=O)C[C@@](O)(C(=O)CO)C[C@@H]3O[C@H]1C[C@H](N)[C@H](O)[C@H](C)O1 [DOXORUBICIN]	26.6	20.9	–	–	–	> 100

Reference: ChEMBL document CHEMBL5550186, “Exploring the Potential of Cyclic Peptidyl Antitumor Agents Derived from Natural Macrocyclic Peptide Phakellistatin 13” (J Med Chem, 2024)
